The values below come from patent US11986532B2 (Arvinas Operations, Inc., priority 2021, dated 2024).

For the assay, the target named is T1, BCL6 (Homo sapiens, UniProt P41182).
T1 construct: endogenous in cells; host or cells: T47D breast cancer epithelial cells
Briefly: Immunofluorescence protocol for high content imaging of BCL6 (degradation) in T47D cells, 3 days compound treatment. The following applies: for Dmax: T47D, read-out: Mean Dmax (%)** category; for DC50: read-out: Mean DC50 (nM)* category. It counts as cell-based. In short, it runs like this: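 Remaining BCL6 in breast cancer T47D cells was measured by high-content immunofluorescence imaging after 3 days of treatment with serially diluted compound (top 0.1 or 1 μM). Nuclei were stained with Hoechst and cells with CellMask.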

In the case of `CNC(=O)COc1cc2cc(Nc3nc(N4CCC(O[C@H]5C[C@H](N6CCC7(CCN(c8ccc9c(c8)CN(C8CCC(=O)NC8=O)C9=O)C7)C6)C5)CC4)ncc3Cl)ccc2n(C(C)C)c1=O` (stereo partly drawn) [Compound 346, 2-({6-[(5-chloro-2-{4-[(1r,3r)-3-{7-[2-(2,6-dioxopiperidin-3-yl)-1-oxo-2,3-dihydro-1H-isoindol-5-yl]-2,7-diazaspiro [4.4]nonan-2-yl}cyclobutoxy]piperidin-1-yl}pyrimidin-4-yl)amino]-2-oxo-1-(propan-2-yl)-1,2-dihydroquinolin-3-yl}oxy)-N-methylacetamide], the Dmax was at least 70% and the DC50 was below 10 nM.

In the case of `CNC(=O)COc1cc2c(F)c(Nc3nc(N4CCC(CN5CCC6(CC5)CN(c5ccc7c(c5)C(=O)N(C5CCC(=O)NC5=O)C7=O)C6)CC4)ncc3Cl)ccc2n(C(C)C)c1=O` (stereo not drawn) [Compound 347, 2-{[6-({5-chloro-2-[4-({2-[2-(2,6-dioxopiperidin-3-yl)-1,3-dioxo-2,3-dihydro-1H-isoindol-5-yl]-2,7-diazaspiro[3.5]nonan-7-yl}methyl)piperidin-1-yl]pyrimidin-4-yl}amino)-5-fluoro-2-oxo-1-(propan-2-yl)-1,2-dihydroquinolin-3-yl]oxy}-N-methylacetamide], the Dmax was at least 70% and the DC50 was below 10 nM.

As for `CNC(=O)COc1cc2cc(Nc3nc(N4CCC(O[C@H]5C[C@H](N6CCC(c7cc8c(cc7OC)C(=O)N(C7CCC(=O)NC7=O)C8)CC6)C5)CC4)ncc3Cl)ccc2n(C(C)C)c1=O` (stereo partly drawn) [Compound 348, 2-({6-[(5-chloro-2-{4-[(1r,3r)-3-{4-[2-(2,6-dioxopiperidin-3-yl)-6-methoxy-1-oxo-2,3-dihydro-1H-isoindol-5-yl]piperidin-1-yl}cyclobutoxy]piperidin-1-yl}pyrimidin-4-yl)amino]-2-oxo-1-(propan-2-yl)-1,2-dihydroquinolin-3-yl}oxy)-N-methylacetamide], the greatest degradation seen (Dmax) was at least 70% and the 50% degradation concentration (DC50) is below 10 nM.

Take `CNC(=O)COc1cc2cc(Nc3nc(N4CCC(O[C@H]5C[C@H](N6CCC7(CCN(c8ccc9c(c8)CN(C8CCC(=O)NC8=O)C9=O)CC7)CC6)C5)CC4)ncc3Cl)ccc2n(C(C)C)c1=O` (stereo partly drawn) [Compound 349, 2-({6-[(5-chloro-2-{4-[(1r,3r)-3-{9-[2-(2,6-dioxopiperidin-3-yl)-1-oxo-2,3-dihydro-1H-isoindol-5-yl]-3,9-diazaspiro [5.5]undecan-3-yl}cyclobutoxy]piperidin-1-yl}pyrimidin-4-yl)amino]-2-oxo-1-(propan-2-yl)-1,2-dihydroquinolin-3-yl}oxy)-N-methylacetamide]: the Dmax is at least 70% and the 50% degradation concentration (DC50) is below 10 nM.

Consider `CNC(=O)COc1cc2cc(Nc3nc(N4CCC(O[C@H]5C[C@H](N6CC7(CCN(c8ccc9c(c8)C(=O)N(C8CCC(=O)NC8=O)C9=O)C7)C6)C5)CC4)ncc3Cl)ccc2n(C(C)C)c1=O` (stereo partly drawn) [Compound 350, 2-({6-[(5-chloro-2-{4-[(1r,3r)-3-{6-[2-(2,6-dioxopiperidin-3-yl)-1,3-dioxo-2,3-dihydro-1H-isoindol-5-yl]-2,6-diazaspiro [3.4]octan-2-yl}cyclobutoxy]piperidin-1-yl}pyrimidin-4-yl)amino]-2-oxo-1-(propan-2-yl)-1,2-dihydroquinolin-3-yl}oxy)-N-methylacetamide], for which the greatest degradation seen (Dmax) was at least 70% and the DC50 is below 10 nM.

Take `CNC(=O)COc1cc2cc(Nc3nc(N4CCC(O[C@H]5C[C@H](N6CC7(CCN(c8ccc9c(c8)CN(C8CCC(=O)NC8=O)C9=O)C7)C6)C5)CC4)ncc3Cl)ccc2n(C(C)C)c1=O` (stereo partly drawn) [Compound 351, 2-({6-[(5-chloro-2-{4-[(1r,3r)-3-{6-[2-(2,6-dioxopiperidin-3-yl)-1-oxo-2,3-dihydro-1H-isoindol-5-yl]-2,6-diazaspiro [3.4]octan-2-yl}cyclobutoxy]piperidin-1-yl}pyrimidin-4-yl)amino]-2-oxo-1-(propan-2-yl)-1,2-dihydroquinolin-3-yl}oxy)-N-methylacetamide]: the Dmax was at least 70% and the DC50 was below 10 nM.

For `CNC(=O)COc1cc2cc(Nc3nc(N4CCC(CN5CCC6(CN(c7ccc8c(c7OC)CN(C7CCC(=O)NC7=O)C8=O)C6)C(F)(F)C5)CC4)ncc3Cl)ccc2n(C(C)C)c1=O` (stereo not drawn) [Compound 352, 2-{[6-({5-chloro-2-[4-({2-[2-(2,6-dioxopiperidin-3-yl)-4-methoxy-1-oxo-2,3-dihydro-1H-isoindol-5-yl]-5,5-difluoro-2,7-diazaspiro [3.5]nonan-7-yl}methyl)piperidin-1-yl]pyrimidin-4-yl}amino)-2-oxo-1-(propan-2-yl)-1,2-dihydroquinolin-3-yl]oxy}-N-methylacetamide], the greatest degradation seen (Dmax) is below 50% and the 50% degradation concentration (DC50) fell in the range of 10 to 50 nM.

On to `CNC(=O)COc1cc2cc(Nc3nc(N4CCC(O[C@H]5C[C@H](N6CC7(CN(c8ccc9c(c8)CN(C8CCC(=O)NC8=O)C9=O)C7)C6)C5)CC4)ncc3Cl)ccc2n(C(C)C)c1=O` (stereo partly drawn) [Compound 353, 2-({6-[(5-chloro-2-{4-[(1r,3r)-3-{6-[2-(2,6-dioxopiperidin-3-yl)-1-oxo-2,3-dihydro-1H-isoindol-5-yl]-2,6-diazaspiro [3.3]heptan-2-yl}cyclobutoxy]piperidin-1-yl}pyrimidin-4-yl)amino]-2-oxo-1-(propan-2-yl)-1,2-dihydroquinolin-3-yl}oxy)-N-methylacetamide], for which the greatest degradation seen (Dmax) is at least 70% and the DC50 is below 10 nM.

`CNC(=O)COc1cc2cc(Nc3nc(N4CCC(O[C@H]5C[C@H](N6CCC7(CCCN(c8ccc9c(c8)CN(C8CCC(=O)NC8=O)C9=O)C7)C6)C5)CC4)ncc3Cl)ccc2n(C(C)C)c1=O` (stereo partly drawn) [Compound 354, 2-({6-[(5-chloro-2-{4-[(1r,3r)-3-{7-[2-(2,6-dioxopiperidin-3-yl)-1-oxo-2,3-dihydro-1H-isoindol-5-yl]-2,7-diazaspiro[4.5]decan-2-yl}cyclobutoxy]piperidin-1-yl}pyrimidin-4-yl)amino]-2-oxo-1-(propan-2-yl)-1,2-dihydroquinolin-3-yl}oxy)-N-methylacetamide]: the Dmax lay within 50 to 70% and the DC50 was below 10 nM.

Regarding `CNC(=O)COc1cc2cc(Nc3nc(N4CCC(O[C@H]5C[C@H](N6CCCC7(CCN(c8ccc9c(c8)C(=O)N(C8CCC(=O)NC8=O)C9=O)C7)C6)C5)CC4)ncc3Cl)ccc2n(C(C)C)c1=O` (stereo partly drawn) [Compound 355, 2-({6-[(5-chloro-2-{4-[(1r,3r)-3-{2-[2-(2,6-dioxopiperidin-3-yl)-1,3-dioxo-2,3-dihydro-1H-isoindol-5-yl]-2,7-diazaspiro[4.5]decan-7-yl}cyclobutoxy]piperidin-1-yl}pyrimidin-4-yl)amino]-2-oxo-1-(propan-2-yl)-1,2-dihydroquinolin-3-yl}oxy)-N-methylacetamide], the greatest degradation seen (Dmax) was at least 70% and the half-maximal degradation concentration (DC50) is below 10 nM.

Regarding `CNC(=O)COc1cc2cc(Nc3nc(N4CCC(O[C@H]5C[C@H](N6CCCC7(CCN(c8ccc9c(c8)CN(C8CCC(=O)NC8=O)C9=O)C7)C6)C5)CC4)ncc3Cl)ccc2n(C(C)C)c1=O` (stereo partly drawn) [Compound 356, 2-({6-[(5-chloro-2-{4-[(1r,3r)-3-{2-[2-(2,6-dioxopiperidin-3-yl)-1-oxo-2,3-dihydro-1H-isoindol-5-yl]-2,7-diazaspiro [4.5]decan-7-yl}cyclobutoxy]piperidin-1-yl}pyrimidin-4-yl)amino]-2-oxo-1-(propan-2-yl)-1,2-dihydroquinolin-3-yl}oxy)-N-methylacetamide], the Dmax was at least 70% and the 50% degradation concentration (DC50) was below 10 nM.

With `CNC(=O)COc1cc2cc(Nc3nc(N4CCC(O[C@H]5C[C@H](N6CCC7(CC6)CN(c6ccc8c(c6)C(=O)N(C6CCC(=O)NC6=O)C8=O)C7)C5)CC4)ncc3Cl)ccc2n(C(C)C)c1=O` (stereo partly drawn) [Compound 357, 2-({6-[(5-chloro-2-{4-[(1r,3r)-3-{2-[2-(2,6-dioxopiperidin-3-yl)-1,3-dioxo-2,3-dihydro-1H-isoindol-5-yl]-2,7-diazaspiro [3.5]nonan-7-yl}cyclobutoxy]piperidin-1-yl}pyrimidin-4-yl)amino]-2-oxo-1-(propan-2-yl)-1,2-dihydroquinolin-3-yl}oxy)-N-methylacetamide], the Dmax is at least 70% and the DC50 was below 10 nM.

For `CNC(=O)COc1cc2cc(Nc3nc(N4CCC(CN5CCC6(CC5)CN(c5ccc7c(c5C)C(=O)N(C5CCC(=O)NC5=O)C7=O)C6)CC4)ncc3Cl)ccc2n(C(C)C)c1=O` (stereo not drawn) [Compound 358, 2-{[6-({5-chloro-2-[4-({2-[2-(2,6-dioxopiperidin-3-yl)-4-methyl-1,3-dioxo-2,3-dihydro-1H-isoindol-5-yl]-2,7-diazaspiro[3.5]nonan-7-yl}methyl)piperidin-1-yl]pyrimidin-4-yl}amino)-2-oxo-1-(propan-2-yl)-1,2-dihydroquinolin-3-yl]oxy}-N-methylacetamide], the maximal degradation (Dmax) lay in the range of 50 to 70% and the 50% degradation concentration (DC50) was below 10 nM.

Turning to `CNC(=O)COc1cc2cc(Nc3nc(N4CCC(O[C@H]5C[C@H](N6CCC7(CCCN(c8ccc9c(c8)C(=O)N(C8CCC(=O)NC8=O)C9=O)C7)C6)C5)CC4)ncc3Cl)ccc2n(C(C)C)c1=O` (stereo partly drawn) [Compound 359, 2-({6-[(5-chloro-2-{4-[(1r,3r)-3-{7-[2-(2,6-dioxopiperidin-3-yl)-1,3-dioxo-2,3-dihydro-1H-isoindol-5-yl]-2,7-diazaspiro [4.5]decan-2-yl}cyclobutoxy]piperidin-1-yl}pyrimidin-4-yl)amino]-2-oxo-1-(propan-2-yl)-1,2-dihydroquinolin-3-yl}oxy)-N-methylacetamide], the Dmax fell in the range of 50 to 70% and the DC50 is 10 to 50 nM.

On to `CNC(=O)COc1cc2cc(Nc3nc(N4CCC(O[C@H]5C[C@H](N6CCC7(CCN(c8ccc9c(c8)C(=O)N(C8CCC(=O)NC8=O)C9=O)C7)CC6)C5)CC4)ncc3Cl)ccc2n(C(C)C)c1=O` (stereo partly drawn) [Compound 360, 2-({6-[(5-chloro-2-{4-[(1r,3r)-3-{2-[2-(2,6-dioxopiperidin-3-yl)-1,3-dioxo-2,3-dihydro-1H-isoindol-5-yl]-2,8-diazaspiro[4.5]decan-8-yl}cyclobutoxy]piperidin-1-yl}pyrimidin-4-yl)amino]-2-oxo-1-(propan-2-yl)-1,2-dihydroquinolin-3-yl}oxy)-N-methylacetamide], for which the Dmax was in the range of 50 to 70% and the DC50 was below 10 nM.
